Read-outs that look alike come from different tables or passages of the source.
What was measured:
[1] = test system: LoVo
Description: (§1) Besides the cell viability assay, we decided to measure the apoptotic activity in the above combination therapy.
(§2) Cells were treated with 5-FU (5-100 μM) and etoposide (1-50 μM) along with VTD (30 and 100 μM respectively) in two different set of experiments for 24 hours.
(§3) An MTT (3[4, 5-dimethylthiazol-2-yl]-2, 5-diphenyltetrazolium bromide) assay was performed to measure the viability of cells. Briefly, cells were seeded at a density of 10×10^3 cells per well in phenol-red free growth media. After 24 hours, cells were treated with various concentrations of VTD±5-FU or etoposide. After incubation, an MTT dye was added to the cells for 2-4 hours. The absorbance of samples was measured at 630 nm using an EXL808 absorption spectrophotometer (Biotek, Winooski). The viability of cells was calculated as % of control. Cell detachment and clonogenic survival assays were conducted as previously described. Early apoptosis, caspase-3, cleaved PARP and Sytox Red (Life Technology, NY, USA) were measured by the Accuri C6 flow cytometer system (BD Pharmingen, MD, USA).[54]
(§4) (A-H) (A-C) HCT-116 and (D-F) LoVo were treated with VTD (10-300 μM) for 24, 48, and 72 hours. A suboptimal dose of Etoposide (ETO) ([…]) was added to cells for the last 24 hours only. The viability of cells was determined as % of control (untreated cells) using an MTT assay. […] (G-H) HCT-116 (G) and LoVo (H) cells were treated with VTD (10-200 μM) and a suboptimal dose of ETO (5 μM) for 24 hours. Cells were then stained with Annexin V apoptotic marker. […] (I-L) HCT-116 and LoVo cells were treated with different doses of 5-FU (5-100 μM, I-J) and ETO (1-50 μM, K-L) along with VTD (30 μM and 100 μM respectively) for 24 hours.

[2] = test system: HCT-116
Description: as §1, §2, §3, §4

[3] = test system: U2OS; assay: Flow cytometry of CD44+ cancer stem cells; format: cell-based, human; details: intermediate-dose of VTD
Source text: (§5) Based on the significant effect of long-term exposure in LoVo and U2OS, we hypothesized that VTD could be a potential complementary strategy alongside 5-FU, an effective drug with a high rate of resistant events in colon tumors. To answer this question, we first determined the minimum concentration of 5-FU that has no effect or a very mild effect on cell viability after 10 days' exposure in three cell lines HCT-116, LoVo, and U2OS (data not shown). We performed the 10 days' treatment using a combination of a low dose of VTD (50 μM or 100 μM) plus a suboptimal dose of 5-FU (1 μM or 5 μM).
(§6) FIG. 20: Sensitization of colon cancer cells to a long-term suboptimal dose of 5-fluorouracil exposure when combined with VTD. (A-D) (A) HCT-116, (B) LoVo, (C) SW-480, and (D) U2OS were treated with VTD (10-300 μM) for 10 days. […] (E-G) (E) HCT-116, (F) LoVo, and (G) U-2OS were treated with suboptimal doses of 5-FU and VTD (50 and 100 μM) for 10 days. […] (J) Tumor tissue lysates from 48 patients with colon cancer along the matched adjacent normal colon tissue lysates were probed with anti-UBXN2A and anti-Actin antibodies, followed by quantitation and normalization of signals. […]

[4] = test system: LoVo; assay: Flow cytometry of CD44+ cancer stem cells; format: cell-based, human; details: intermediate-dose of VTD
Source text: as §5, §6

[5] = test system: UBXN2A promoter; assay: UBXN2A promoter luciferase high-throughput drug screen in HCT-116 cells; format: cell-based, human
Description: Our in vivo results encouraged us to screen for compounds that can enhance expression of UBXN2A. Using the UBXN2A promoter upstream of a luciferase construct that was transiently transfected to HCT-116 cells, we performed a high-throughput drug screen with 1800 FDA approved drugs, synthetic compounds, and natural products. Forty-eight hours after transfection, cells were treated with compounds for 24 hours in triplicate (FIG. 16A). […] We looked at protein expression of UBXN2A as well as P47 (another member of the UBXD family) to confirm the selectivity of VH as a selective enhancer of UBXN2A protein in cells. […] We observed a different level of VH-dependent UBXN2A induction in different segments of the gastrointestinal system (esophagus to rectum; data not shown).
A cell-based screen was conducted in search of compounds that induce the expression of the UBXN2A gene. The 3.9K base of DNA upstream from the UBXN2A gene on human chromosome 2, including endogenous promoters and necessary enhancers as well as untranslated exon 1, was cloned into MCS-mGL.1, a Gaussia luciferase vector, and transiently transfected into HCT-116 colon cancer cells, with empty MCS-mGL.1 for background expression. […] A glow luciferase activity assay was conducted in triplicate followed by semi-quantitative RT-PCR and WB analysis for UBXN2A, p47 (negative control), or GAPDH± Veratrine or its purified form VTD. […]

[6] = 5-FU 5-100 μM along with VTD 100 μM, 24 hours
[7] = VTD 10-300 μM 24, 48, 72 hours plus suboptimal etoposide 5 μM for the last 24 hours
[8] = etoposide 1-50 μM along with VTD 30 μM, 24 hours
[9] = higher concentrations of VTD with etoposide 5 μM
[10] = low doses of VTD with etoposide, antagonistic

COc1ccc(C(=O)O[C@H]2CC[C@@]3(C)[C@@H]4CC[C@H]5[C@]6(O)C[C@H](O)[C@@]7(O)[C@@H](CN8C[C@@H](C)CC[C@H]8[C@@]7(C)O)[C@]6(O)C[C@@]53O[C@]24O)cc1OC [VTD, Veratridine]
combination index (CI) ([1]; 5-FU 5 μM with 100 μM VTD): 0.32
cell viability (MTT), 5-FU effect enhanced by VTD [1, 6]: significantly enhanced the 5-FU and etoposide effects on cell viability
cell viability (MTT), combination [1, 7]: significantly potentiates the cytotoxic effect of VTD
combination index (CI) ([1]; etoposide 1 μM with 30 μM VTD): 0.275
VTD concentration at which VTD and etoposide start to act synergistically ([1]; etoposide 5 μM): 100 µM
cell viability (MTT), etoposide effect enhanced by VTD [1, 8]: significantly enhanced the 5-FU and etoposide effects on cell viability
combination index (CI) [1, 9]: ≤ 0.4
combination index (CI) [1, 10]: > 1
combination index (CI) ([2]; 5-FU 75 μM combined with 100 μM VTD): 0.165
combination index (CI) ([2]; 5-FU 100 μM combined with 100 μM VTD): 0.109
cell viability (MTT), 5-FU effect enhanced by VTD [2, 6]: significantly enhanced the 5-FU and etoposide effects on cell viability
combination index (CI) ([2]; VTD 30 μM with etoposide 5 μM): 0.516
cell viability (MTT), combination [2, 7]: significantly potentiates the cytotoxic effect of VTD
cell viability (MTT), etoposide effect enhanced by VTD [2, 8]: significantly enhanced the 5-FU and etoposide effects on cell viability
combination index (CI) [2, 9]: ≤ 0.4
combination index (CI) [2, 10]: > 1
abundance of CD44+ cancer stem cells [3]: reduces the abundance of the CD44+ cancer stem cells
abundance of CD44+ cancer stem cells [4]: reduces the abundance of the CD44+ cancer stem cells
UBXN2A promoter transactivation [5]: transactivates the UBXN2A promoter

Source: patent publication US12233129B2, “Methods and compositions for the treatment of cancer” (priority 2019, dated 2025)
